According to PubChem BioAssay AID248 (DTP/NCI, 2004):
Values joined by “and” are separate entries in the source; they are usually repeats but may differ in a detail not shown here. Equal values may be shown once. Inconclusive results and toxic doses are left out. No stated cut-off is given here; in the data, active means T/C of 150% or more; inactive means T/C below 125%.

System: L1210 leukemia ip in BDF1 mice, survival T/C
Assay: NCI In Vivo Anticancer Drug Screen. Data for tumor model L1210 Leukemia (intraperitoneal) in B6D2F1 (BDF1) mice
Settings: endpoint: mean survival time, higher = longer survival
Method in brief: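 Transplantable tumor model; survival measured in treated vs vehicle control mice. Value = treated/control.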

[1] = dose: 50.0 mg/kg/injection, schedule: Q01DX001 (ip), vehicle: saline
[2] = dose: 400.0 mg/kg/injection, schedule: Q01DX001 (ip), vehicle: saline
[3] = dose: 100.0 mg/kg/injection, schedule: Q01DX001 (ip), vehicle: carboxymethylcellulose (CMC)
[4] = dose: 200.0 mg/kg/injection, schedule: Q01DX001 (ip), vehicle: carboxymethylcellulose (CMC)
[5] = dose: 400.0 mg/kg/injection, schedule: Q01DX001 (ip), vehicle: carboxymethylcellulose (CMC)
[6] = dose: 100.0 mg/kg/injection, schedule: Q01DX009 (ip), vehicle: Klucel (hydroxypropylcellulose) (HPC)
[7] = dose: 200.0 mg/kg/injection, schedule: Q01DX009 (ip), vehicle: Klucel (hydroxypropylcellulose) (HPC)
[8] = dose: 400.0 mg/kg/injection, schedule: Q01DX009 (ip), vehicle: Klucel (hydroxypropylcellulose) (HPC)
[9] = dose: 100.0 mg/kg/injection, schedule: Q04DX002 (ip), vehicle: Klucel (hydroxypropylcellulose) (HPC)
[10] = dose: 200.0 mg/kg/injection, schedule: Q04DX002 (ip), vehicle: Klucel (hydroxypropylcellulose) (HPC)
[11] = dose: 400.0 mg/kg/injection, schedule: Q04DX002 (ip), vehicle: Klucel (hydroxypropylcellulose) (HPC)
[12] = dose: 100.0 mg/kg/injection, schedule: Q04DX003 (ip), vehicle: Klucel (hydroxypropylcellulose) (HPC)
[13] = dose: 200.0 mg/kg/injection, schedule: Q04DX003 (ip), vehicle: Klucel (hydroxypropylcellulose) (HPC)
[14] = dose: 400.0 mg/kg/injection, schedule: Q04DX003 (ip), vehicle: Klucel (hydroxypropylcellulose) (HPC)
[15] = dose: 50.0 mg/kg/injection, schedule: Q01DX009 (ip), vehicle: saline with Tween-80
[16] = dose: 100.0 mg/kg/injection, schedule: Q01DX009 (ip), vehicle: saline with Tween-80
[17] = dose: 100.0 mg/kg/injection, schedule: Q04DX003 (ip), vehicle: saline with Tween-80
[18] = dose: 200.0 mg/kg/injection, schedule: Q04DX003 (ip), vehicle: saline with Tween-80
[19] = dose: 400.0 mg/kg/injection, schedule: Q04DX003 (ip), vehicle: saline with Tween-80

Measured: T/C

COC(=O)C(C)C(=O)O (stereo not given)
inactive: dose: 100.0 mg/kg/injection, schedule: Q04DX002 (ip), vehicle: saline 90 % of control | dose: 200.0 mg/kg/injection, schedule: Q04DX002 (ip), vehicle: saline 97 % of control | dose: 400.0 mg/kg/injection, schedule: Q04DX002 (ip), vehicle: saline 90 % of control

O=C1CCc2cc(Br)ccc2O1
inactive: [1] 92 % of control | dose: 100.0 mg/kg/injection, schedule: Q01DX001 (ip), vehicle: saline 103 % of control | dose: 200.0 mg/kg/injection, schedule: Q01DX001 (ip), vehicle: saline 100 % of control | [2] 100 % of control

Cc1ccc(-c2ccc(C)cc2[N+](=O)[O-])cc1
inactive: [3] 91 % of control | [4] 100 % of control | [5] 102 % of control

Cc1ccc(C(=O)c2cccc([N+](=O)[O-])c2)cc1
inactive: [6] 104 % of control | [7] 103 % of control | [8] 98 % of control

CN=C(N)c1ccc(N=C(N)c2ccc(N=C(N)c3ccc(N)cc3)cc2)cc1
active: dose: 35.0 mg/kg/injection, schedule: Q01DX015 (ip), vehicle: saline 151 % of control
inactive: dose: 4.25 mg/kg/injection, schedule: Q01DX Z (ip), vehicle: water 112 % of control | dose: 8.5 mg/kg/injection, schedule: Q01DX Z (ip), vehicle: water 120 % of control | [1] 115 % of control | dose: 62.5 mg/kg/injection, schedule: Q01DX Z (oral), vehicle: water 101 % of control | dose: 125.0 mg/kg/injection, schedule: Q01DX Z (oral), vehicle: water 103 % of control | dose: 250.0 mg/kg/injection, schedule: Q01DX Z (oral), vehicle: water 102 % of control

O=C1NC(=O)C(Cc2ccccc2)(Cc2ccccc2)C(=O)N1
inactive: [3] 103 % of control | [4] 95 % of control | [5] 95 % of control

O=C1C=C(c2ccccc2)C(=O)C2(c3ccccc3)C=CCC(c3ccccc3)C12 (stereo not given)
inactive: [9] 113 % of control | [10] 113 % of control | [11] 95 % of control

O=C(COc1ccc(Cl)cc1Cl)OCCCl
inactive: [9] 94 % of control | [10] 105 % of control

c1ccc2c(c1)C(=NOc1nc3ccccc3c3ccccc13)c1ccccc1-2
inactive: dose: 100.0 mg/kg/injection, schedule: Q01DX001 (ip), vehicle: Klucel (hydroxypropylcellulose) (HPC) 96 % of control | [12] 93 % of control | dose: 200.0 mg/kg/injection, schedule: Q01DX001 (ip), vehicle: Klucel (hydroxypropylcellulose) (HPC) 91 % of control | [13] 95 % of control | dose: 400.0 mg/kg/injection, schedule: Q01DX001 (ip), vehicle: Klucel (hydroxypropylcellulose) (HPC) 86 % of control | [14] 99 % of control

CCOc1ccn(CC(=O)c2ccc([N+](=O)[O-])o2)c(=O)n1
inactive: [15] 96 % of control | [16] 94 % of control | [17] 98 % of control | [18] 91 % of control

COc1cccc(CCNC(=O)CC#N)c1
inactive: [12] 98 % of control | [13] 87 % of control | [14] 91 % of control

c1ccc2c(c1)nnn1c3ccccc3nc21
inactive: dose: 25.0 mg/kg/injection, schedule: Q04DX003 (ip), vehicle: Klucel (hydroxypropylcellulose) (HPC) 102 % of control | dose: 50.0 mg/kg/injection, schedule: Q04DX003 (ip), vehicle: Klucel (hydroxypropylcellulose) (HPC) 94 % of control | dose: 100.0 mg/kg/injection, schedule: Q01DX001 (ip), vehicle: other 97 % of control | dose: 100.0 mg/kg/injection, schedule: Q01DX009 (ip), vehicle: other 101 % of control | [12] 104 % of control | dose: 200.0 mg/kg/injection, schedule: Q01DX001 (ip), vehicle: other 108 % of control and 92 % of control | dose: 200.0 mg/kg/injection, schedule: Q01DX009 (ip), vehicle: other 86 % of control | dose: 400.0 mg/kg/injection, schedule: Q01DX001 (ip), vehicle: other 95 % of control and 92 % of control | dose: 400.0 mg/kg/injection, schedule: Q01DX009 (ip), vehicle: other 90 % of control

Nc1nc(=S)c2ncn(C3OC(COC(=O)c4ccccc4)C(OC(=O)c4ccccc4)C3OC(=O)c3ccccc3)c2[nH]1 (stereo not given)
active: dose: 5.0 mg/kg/injection, schedule: Q01DX009 (ip), vehicle: saline 159 % of control | dose: 45.0 mg/kg/injection, schedule: Q01DX009 (ip), vehicle: saline 164 % of control | dose: 100.0 mg/kg/injection, schedule: Q01DX Z (ip), vehicle: methylcellulose (MC) 153 % of control
inactive: dose: 0.1 mg/kg/injection, schedule: Q01DX009 (ip), vehicle: saline 104 % of control | dose: 0.3 mg/kg/injection, schedule: Q01DX009 (ip), vehicle: saline 118 % of control | dose: 0.6 mg/kg/injection, schedule: Q01DX009 (ip), vehicle: saline 118 % of control | dose: 29.0 mg/kg/injection, schedule: Q01DX Z (ip), vehicle: methylcellulose (MC) 116 % of control | dose: 175.0 mg/kg/injection, schedule: Q01DX009 (ip), vehicle: saline 98 % of control | dose: 265.0 mg/kg/injection, schedule: Q01DX001 (ip), vehicle: saline 118 % of control | [2] 86 % of control

C(=C\C1SCCCS1)/c1ccccc1
inactive: dose: 100.0 mg/kg/injection, schedule: Q04DX002 (ip), vehicle: saline with Tween-80 101 % of control | dose: 200.0 mg/kg/injection, schedule: Q04DX002 (ip), vehicle: saline with Tween-80 114 % of control | dose: 400.0 mg/kg/injection, schedule: Q04DX002 (ip), vehicle: saline with Tween-80 101 % of control

Nc1ccc(C(=O)N/N=C\c2cccc3ccccc23)cc1
inactive: [9] 97 % of control | [10] 90 % of control | [11] 93 % of control

Cc1ccc(/C=C2\CC(C)(C)c3ccccc3C2=O)cc1
inactive: [18] 100 % of control | [19] 93 % of control

O=C(Nc1cccc2ccccc12)OC1CCCCC1Br (stereo not given)
inactive: dose: 200.0 mg/kg/injection, schedule: Q01DX001 (ip), vehicle: saline with Tween-80 89 % of control | dose: 400.0 mg/kg/injection, schedule: Q01DX001 (ip), vehicle: saline with Tween-80 89 % of control

CCCCN(CCCC)CC(O)c1cc(Cc2ccccc2)nc2c(Cl)cc(Cl)cc12 (stereo not given)
inactive: [17] 89 % of control | [18] 100 % of control | [19] 100 % of control

Cc1cccc(NC(=O)Nc2ccccc2)c1C
inactive: [6] 104 % of control | [12] 101 % of control | [7] 96 % of control | [13] 95 % of control | [8] 104 % of control | [14] 98 % of control

N=C(N=C(N)N)N(Cc1ccccc1)Cc1ccccc1
inactive: dose: 6.25 mg/kg/injection, schedule: Q01DX009 (ip), vehicle: water 103 % of control | dose: 6.25 mg/kg/injection, schedule: Q04DX003 (ip), vehicle: water 97 % of control | dose: 12.5 mg/kg/injection, schedule: Q01DX001 (ip), vehicle: water 107 % of control | dose: 12.5 mg/kg/injection, schedule: Q01DX009 (ip), vehicle: water 101 % of control | dose: 12.5 mg/kg/injection, schedule: Q04DX003 (ip), vehicle: water 103 % of control | dose: 25.0 mg/kg/injection, schedule: Q01DX001 (ip), vehicle: water 100 % of control | dose: 25.0 mg/kg/injection, schedule: Q01DX009 (ip), vehicle: water 101 % of control | dose: 25.0 mg/kg/injection, schedule: Q04DX003 (ip), vehicle: water 96 % of control

O=[N+]([O-])c1ccc2nc(-c3ccccc3)c(-c3ccccc3)nc2c1
inactive: [6] 102 % of control | [12] 98 % of control | [7] 105 % of control | [13] 104 % of control | [8] 96 % of control | [14] 104 % of control

N#Cc1ccc(CCCCCCc2ccc(C#N)cc2)cc1
inactive: dose: 25.0 mg/kg/injection, schedule: Q01DX009 (ip), vehicle: saline with Tween-80 95 % of control | dose: 50.0 mg/kg/injection, schedule: Q01DX001 (ip), vehicle: carboxymethylcellulose (CMC) 101 % of control | [15] 95 % of control | [3] 106 % of control | [16] 94 % of control | [4] 110 % of control | [5] 120 % of control
